Experiments:
Rattus norvegicus [1] = test: Reduction in body weight in rat model at dose 0.01 mg/kg (p.o.); assay type: functional; settings: route oral
Rattus norvegicus [2] = test: Reduction in body weight in rat model at dose 0.1 mg/kg (p.o.); assay type: functional; settings: route oral
Rattus norvegicus [3] = test: Reduction in body weight in rat model at dose 1.0 mg/kg (p.o.); assay type: functional; settings: route oral
Rattus norvegicus [4] = test: Reduction in body weight in rat model at dose 10.0 mg/kg (p.o.); assay type: functional; settings: route oral
Rattus norvegicus [5] = test: Reduction in serum cholesterol in rat model at dose 0.01 mg/kg (p.o.); assay type: functional, organism-based; design: dose 0.01 mg/kg
Rattus norvegicus [6] = test: Reduction in serum cholesterol in rat model at dose 0.1 mg/kg (p.o.); assay type: functional, organism-based; design: dose 0.1 mg/kg
Rattus norvegicus [7] = test: Reduction in serum cholesterol in rat model at dose 1.0 mg/kg (p.o.); assay type: functional, organism-based; design: dose 1 mg/kg
Rattus norvegicus [8] = test: Reduction in serum cholesterol in rat model at dose 10.0 mg/kg (p.o.); assay type: functional, organism-based; design: dose 10 mg/kg
Rattus norvegicus [9] = test: Reduction in uterine weight in rat model at dose 0.01 mg/kg (p.o.); assay type: functional; settings: route oral
Rattus norvegicus [10] = test: Reduction in uterine weight in rat model at dose 0.1 mg/kg (p.o.); assay type: functional; settings: route oral
Rattus norvegicus [11] = test: Reduction in uterine weight in rat model at dose 1.0 mg/kg (p.o.); assay type: functional; settings: route oral
Rattus norvegicus [12] = test: Reduction in uterine weight in rat model at dose 10.0 mg/kg (p.o.); assay type: functional; settings: route oral

Molecule `CC1=C(c2ccc(O)cc2)C(c2ccc(OCCN3CCCCC3)cc2)Oc2cc(O)ccc21` (configuration not stated) has a Body weight (Rattus norvegicus [1]) of 306 g, a Body weight (Rattus norvegicus [2]) of 281 g and a Body weight (Rattus norvegicus [3]) of 295 g. It also gave a Body weight (Rattus norvegicus [4]) of 302 g, a Serum cholesterol (Rattus norvegicus [5]) of 79 mg/dL and a Serum cholesterol (Rattus norvegicus [6]) of 69.8 mg/dL. The Serum cholesterol (Rattus norvegicus [7]) was 42.3 mg/dL, the Serum cholesterol (Rattus norvegicus [8]) was 57.4 mg/dL and the Uterine weight (Rattus norvegicus [9]) was 128.2 mg. It also gave a Uterine weight (Rattus norvegicus [10]) of 160.2 mg, a Uterine weight (Rattus norvegicus [11]) of 134.2 mg and a Uterine weight (Rattus norvegicus [12]) of 135.2 mg.

Molecule `C#C[C@]1(O)CC[C@H]2[C@@H]3CCc4cc(O)ccc4[C@H]3CC[C@@]21C` [ETHINYL ESTRADIOL] has a Body weight (Rattus norvegicus [2]) of 274 g, a Serum cholesterol (Rattus norvegicus [6]) of 37.1 mg/dL and a Uterine weight (Rattus norvegicus [10]) of 319 mg.

With `Oc1ccc(C2=Cc3ccc(O)cc3OC2c2ccc(OCCN3CCCCC3)cc2)cc1` (configuration not stated) the Body weight (Rattus norvegicus [1]) was 334 g, the Body weight (Rattus norvegicus [2]) was 314 g and the Body weight (Rattus norvegicus [3]) was 287 g. It also gave a Body weight (Rattus norvegicus [4]) of 284 g, a Serum cholesterol (Rattus norvegicus [5]) of 92.1 mg/dL and a Serum cholesterol (Rattus norvegicus [6]) of 69.3 mg/dL. The Serum cholesterol (Rattus norvegicus [7]) was 52.6 mg/dL, the Serum cholesterol (Rattus norvegicus [8]) was 53 mg/dL and the Uterine weight (Rattus norvegicus [9]) was 105.7 mg. It also gave a Uterine weight (Rattus norvegicus [10]) of 132.2 mg, a Uterine weight (Rattus norvegicus [11]) of 151 mg and a Uterine weight (Rattus norvegicus [12]) of 124.2 mg.

Source: ChEMBL document CHEMBL1129013, “Benzopyran selective estrogen receptor modulators (SERMs): Pharmacological effects and structural correlation with raloxifene” (1996)
